Drawing on patent publication US7754727B2, “4-phenylpiperidine derivatives as renin inhibitors” (Novartis AG, priority 2003, dated 2010), this text covers IC50 for 1 compound.

As a reminder, the IC50 is the point on the concentration scale where inhibition reaches its midpoint.

Where a name gives a salt, the structure may show the parent alone.

The target in this test is T1, Recombinant human renin (Homo sapiens, UniProt P00797).
T1 construct: made in house; host or cells: Chinese Hamster Ovary cells
T1 sequence (P00797 67-406): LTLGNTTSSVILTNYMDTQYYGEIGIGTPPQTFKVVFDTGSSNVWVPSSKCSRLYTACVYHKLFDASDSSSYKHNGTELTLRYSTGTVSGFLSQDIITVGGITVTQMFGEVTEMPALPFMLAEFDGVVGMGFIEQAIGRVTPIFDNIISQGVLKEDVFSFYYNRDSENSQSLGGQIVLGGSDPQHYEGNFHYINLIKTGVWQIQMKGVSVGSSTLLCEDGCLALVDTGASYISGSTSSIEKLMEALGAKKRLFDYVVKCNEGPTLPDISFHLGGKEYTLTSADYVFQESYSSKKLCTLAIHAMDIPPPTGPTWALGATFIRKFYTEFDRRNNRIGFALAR
The test can be described thus: FRET assay of inhibition of renin activity. The settings on record: recombinant human renin 4 nM, 1 h at RT, pH 7.4. The class given is biochemical. As for the experimental part: Recombinant human renin (expressed in Chinese Hamster Ovary cells and purified using standard methods) at 4 nM concentration is incubated with test compound at various concentrations for 1 h at RT in 0.1 M Tris-HCl buffer, pH 7.4, containing 0.05 M NaCl, 0.5 mM EDTA and 0.05% CHAPS. Synthetic peptide substrate Arg-Glu(EDANS)-Ile-His-Pro-Phe-His-Leu-Val-Ile_His_Thr-Lys(DABCYL)-Arg9 is added to a final concentration of 2 μM and increase in fluorescence is recorded at an excitation wave-length of 340 nm and at an emission wave-length of 485 nm in a microplate spectro-fluorimeter. IC50 values are calculated from percentage of inhibition of renin activity as a function of test compound concentration (Fluorescence Resonance Energy Transfer, FRET, assay).

In the case of `c1ccc(-c2cccc([C@H]3CCNC[C@@H]3OCc3ccc4ccccc4c3)c2)cc1` (relative stereo) [Example 1, (3R*,4R*)-4-Biphenyl-3-yl-3-(naphthalen-2-ylmethoxy)-piperidine hydrochloride], the IC50 is roughly 70 nM.
